Test results: patent US11459312B2, “Sulphur substituted 3-oxo-2,3-dihydropyridazine-4-carboxamides” (Bayer Aktiengesellschaft, priority 2017, dated 2022)

Biological target: T1, AHR (Homo sapiens, UniProt P35869)
T1 sequence (P35869 11-848): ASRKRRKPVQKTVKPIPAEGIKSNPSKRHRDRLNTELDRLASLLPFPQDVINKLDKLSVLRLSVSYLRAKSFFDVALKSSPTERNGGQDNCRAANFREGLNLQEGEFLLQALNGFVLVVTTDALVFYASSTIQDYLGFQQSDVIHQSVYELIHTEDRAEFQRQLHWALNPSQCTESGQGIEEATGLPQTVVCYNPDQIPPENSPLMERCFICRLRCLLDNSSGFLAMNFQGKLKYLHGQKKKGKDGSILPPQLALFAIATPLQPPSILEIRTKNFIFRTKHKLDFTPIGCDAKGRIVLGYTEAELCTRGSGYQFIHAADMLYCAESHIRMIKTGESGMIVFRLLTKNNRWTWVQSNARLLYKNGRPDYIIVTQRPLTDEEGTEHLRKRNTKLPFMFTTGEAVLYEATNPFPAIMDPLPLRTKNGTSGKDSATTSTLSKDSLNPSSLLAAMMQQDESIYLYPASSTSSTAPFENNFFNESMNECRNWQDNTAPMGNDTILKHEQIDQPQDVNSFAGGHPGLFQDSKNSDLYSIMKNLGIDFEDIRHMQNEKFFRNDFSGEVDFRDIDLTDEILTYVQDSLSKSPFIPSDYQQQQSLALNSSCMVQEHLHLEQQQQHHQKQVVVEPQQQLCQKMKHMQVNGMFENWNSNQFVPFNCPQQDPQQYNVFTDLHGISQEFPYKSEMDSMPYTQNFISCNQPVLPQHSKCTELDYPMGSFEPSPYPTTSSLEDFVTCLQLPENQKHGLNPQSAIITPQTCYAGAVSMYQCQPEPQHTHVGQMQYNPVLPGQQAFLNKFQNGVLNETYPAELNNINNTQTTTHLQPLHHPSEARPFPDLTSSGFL
Test: In vitro assay 1: AHR-luc transactivation assay, antagonism in human cell line (U87 glioblastoma cells, kynurenic acid prestimulated)
Assay type: cell-based
Design: U87 glioblastoma cells (ATCC) endogenously expressing AHR; host or cells: U87 glioblastoma cells, stably transfected with DRE-firefly luciferase and renilla reporter constructs only
Conditions: firefly luciferase DRE reporter, 150 μM kynurenic acid, 20 hours, read-out: Assay 1: AHR-luc Hum Antagonism IC50
Description: Transactivation Assay in Human Cell Line (In Vitro Assays 1 and 2)
Transactivation assays were carried out in U87 glioblastoma cells (ATCC) endogenously expressing AHR. In addition the cells were stably transfected with an AHR inducible firefly luciferase reporter gene construct that carried AHR-binding sites (DRE) in its promoter and a renilla reporter gene construct with constitutively active promoter. Kynurenic acid is an endogenous AHR activating ligand and was used to prestimulate test cells prior to testing the antagonistic properties of compounds.
In Vitro Assay 1: Antagonism in Human Cell Line
Cells in medium (tryptophan free RPMI, 1% FCS, 2 mM Glutamine) supplemented with 150 μM kynurenic acid were grown for 20 hours in absence (negative control) or presence of increasing concentrations of test compounds (typical dilutions: […], 0.25 nmol/L, 0.89 nmol/L; 3.1 nmol/L, 11 nmol/L, 38 nmol/L, 130 nmol/L, 470 nmol/L, 1.6 μmol/L, 5.7 μmol/L and 20 μmol/L in duplicates). As positive inhibition control cells supplemented with 150 μM kynurenic acid were incubated in presence of 5 μM Staurosporin. Normalization was done by positive and negative controls.
Firefly luciferase and Renilla activity was determined by the DualGlo Luciferase Assay System (Promega, #2920). Renilla activity was used to assess toxic effects of compounds.

Compound	IC50 [nM]
O=C(N[C@@H]1C[S+]([O-])C[C@@H]1O)c1cc(-c2ccc(Cl)cc2)nn(-c2cccc(F)c2)c1=O (single isomer, unassigned) [Example 26, 6-(4-chlorophenyl)-2-(3-fluorophenyl)-N-[(cis)-4-hydroxy-1-oxidotetrahydro-thiophen-3-yl]-3-oxo-2,3-dihydropyridazine-4-carboxamide]	33.3
C[C@@H](C[S+](C)[O-])NC(=O)c1cc(-c2ccc(Cl)cc2)nn(-c2cccc(F)c2)c1=O (mixture of isomers) [Example 3, 6-(4-Chlorophenyl)-2-(3-fluorophenyl)-N-[(2S)-1-(methylsulfinyl)propan-2-yl]-3-oxo-2,3-dihydropyridazine-4-carboxamide]	44.2
O=C(N[C@@H]1CS(=O)(=O)C[C@@H]1O)c1cc(-c2ccc(C(F)(F)F)cc2)nn(-c2cnsc2)c1=O (single isomer, unassigned) [Example 12, (+)-N-[(cis)-4-hydroxy-1,1-dioxidotetra-hydrothiophen-3-yl]-3-oxo-2-(1,2-thiazol-4-yl)-6-[4-(trifluoromethyl)phenyl]-2,3-dihydropyridazine-4-carboxamide]	1.11
C[C@@H](CS(C)(=O)=O)NC(=O)c1cc(-c2ccc(C(F)(F)F)cc2)nn(-c2cnn(C)c2)c1=O [Example 22, 2-(1-Methyl-1H-pyrazol-4-yl)-N-[(2S)-1-(methylsulfonyl)propan-2-yl]-3-oxo-6-[4-(trifluoromethyl)phenyl]-2,3-dihydropyridazine-4-carboxamide]	21.9
O=C(N[C@@H]1CS(=O)(=O)C[C@@H]1O)c1cc(-c2ccc(C(F)(F)F)cc2)nn(-c2cnsc2)c1=O (relative stereo) [Example 10, N-[(cis)-4-hydroxy-1,1-dioxidotetrahydro-thiophen-3-yl]-3-oxo-2-(1,2-thiazol-4-yl)-6-[4-(trifluoromethyl)phenyl]-2,3-dihydropyridazine-4-carboxamdie]	2.41
O=C(N[C@@H]1CS(=O)(=O)C[C@@H]1O)c1cc(-c2ccc(C(F)(F)F)nc2)nn(-c2cccc(F)c2)c1=O (relative stereo) [Example 19, 2-(3-fluorophenyl)-N-[(cis)-4-hydroxy-1,1-dioxidotetrahydro-thiophen-3-yl]-3-oxo-6-[6-(trifluoromethyl)pyridin-3-yl]-2,3-dihydropyridazine-4-carboxamide]	69.9
O=C(N[C@@H]1CS(=O)(=O)C[C@@H]1O)c1cc(-c2ccc(C(F)(F)F)cc2)nn(-c2cccnc2)c1=O (single isomer, unassigned) [Example 18]	38.2
O=C(N[C@@H]1CS(=O)(=O)C[C@@H]1O)c1cc(-c2ccc(C(F)(F)F)nc2)nn(-c2cccc(F)c2)c1=O (single isomer, unassigned) [Example 21, (−)-2-(3-fluorophenyl)-N-[(cis)-4-hydroxy-1,1-dioxidotetrahydro-thiophen-3-yl]-3-oxo-6-[6-(trifluoromethyl)pyridin-3-yl]-2,3-dihydropyridazine-4-carboxamide]	205
CSC[C@H](C)NC(=O)c1cc(-c2ccc(Cl)cc2)nn(-c2cccc(F)c2)c1=O [Example 1, 6-(4-Chlorophenyl)-2-(3-fluorophenyl)-N-[(2S)-1-(methylsulfanyl)propan-2-yl]-3-oxo-2,3-dihydropyridazine-4-carboxamide]	52.6
C[C@@H](CS(C)(=N)=O)NC(=O)c1cc(-c2ccc(Cl)cc2)nn(-c2cccc(F)c2)c1=O (single isomer, unassigned) [Example 7]	241

Second part, the compound after the results:

IC50 [nM]	Compound
34.9	N=S1(=O)C[C@H](O)[C@H](NC(=O)c2cc(-c3ccc(Cl)cc3)nn(-c3cccc(F)c3)c2=O)C1 (stereo partly drawn) [Example 42, 6-(4-chlorophenyl)-2-(3-fluorophenyl)-N-[(cis)-4-hydroxy-1-imino-1-oxidotetrahydro-1H-1lambda4-thiophen-3-yl]-3-oxo-2,3-dihydropyridazine-4-carboxamide]
700	CS(=N)(=O)CCNC(=O)c1cc(-c2ccc(Cl)cc2)nn(-c2cccc(F)c2)c1=O (stereo not drawn) [Example 52, 6-(4-Chlorophenyl)-2-(3-fluorophenyl)-N-[2-(S-methylsulfonimidoyl)ethyl]-3-oxo-2,3-dihydropyridazine-4-carboxamide]
272	O=C(N[C@@H]1C[S+]([O-])C[C@@H]1O)c1cc(-c2ccc(C(F)(F)F)cc2)nn(-c2cccnc2)c1=O (single isomer, unassigned) [Example 35, N-[(cis)-4-hydroxy-1-oxidotetrahydro-thiophen-3-yl]-3-oxo-2-(pyridin-3-yl)-6-[4-(trifluoromethyl)phenyl]-2,3-dihydropyridazine-4-carboxamide]
139	O=C(N[C@@H]1C[S+]([O-])C[C@@H]1O)c1cc(-c2ccc(C(F)(F)F)cc2)nn(-c2cccnc2)c1=O (relative stereo) [Example 33, N-[(cis)-4-hydroxy-1-oxidotetrahydro-thiophen-3-yl]-3-oxo-2-(pyridin-3-yl)-6-[4-(trifluoromethyl)phenyl]-2,3-dihydropyridazine-4-carboxamide]
43.8	N=S1(=O)C[C@H](O)[C@H](NC(=O)c2cc(-c3ccc(Cl)cc3)nn(-c3cccc(F)c3)c2=O)C1 (single isomer, unassigned) [Example 43, 6-(4-chlorophenyl)-2-(3-fluorophenyl)-N-[(cis)-4-hydroxy-1-imino-1-oxidotetrahydro-1H-1lambda4-thiophen-3-yl]-3-oxo-2,3-dihydropyridazine-4-carboxamide]
78.8	O=C(N[C@@H]1C[S+]([O-])C[C@@H]1O)c1cc(-c2ccc(C(F)(F)F)cc2)nn(-c2cccnc2)c1=O (single isomer, unassigned) [Example 34, N-[(cis)-4-hydroxy-1-oxidotetrahydro-thiophen-3-yl]-3-oxo-2-(pyridin-3-yl)-6-[4-(trifluoromethyl)phenyl]-2,3-dihydropyridazine-4-carboxamide]
301	O=C(N[C@@H]1C[S+]([O-])C[C@@H]1O)c1cc(-c2ccc(Cl)cc2)nn(-c2cccc(F)c2)c1=O (single isomer, unassigned) [Example 29, 6-(4-chlorophenyl)-2-(3-fluorophenyl)-N-[(cis)-4-hydroxy-1-oxidotetrahydro-thiophen-3-yl]-3-oxo-2,3-dihydropyridazine-4-carboxamide]
210	O=C(N[C@@H]1C[S+]([O-])C[C@@H]1O)c1cc(-c2ccc(Cl)cc2)nn(-c2cccc(F)c2)c1=O (single isomer, unassigned; (-)) [Example 30, (−)-6-(4-chlorophenyl)-2-(3-fluorophenyl)-N-[(cis)-4-hydroxy-1-oxidotetrahydro-thiophen-3-yl]-3-oxo-2,3-dihydropyridazine-4-carboxamide]
581	CS(=N)(=O)CCNC(=O)c1cc(-c2ccc(Cl)cc2)nn(-c2cccc(F)c2)c1=O (single isomer, unassigned) [Example 54, 6-(4-Chlorophenyl)-2-(3-fluorophenyl)-N-[2-(S-methylsulfonimidoyl)ethyl]-3-oxo-2,3-dihydropyridazine-4-carboxamide]
26.4	C[C@@H](C[S+](C)[O-])NC(=O)c1cc(-c2ccc(Cl)cc2)nn(-c2cnn(C)c2)c1=O (stereo partly drawn) [Example 49, 6-(4-Chlorophenyl)-2-(1-methyl-1H-pyrazol-4-yl)-N-[(2S)-1-(methylsulfinyl)propan-2-yl]-3-oxo-2,3-dihydropyridazine-4-carboxamide]
99.3	N=S1(=O)C[C@H](O)[C@H](NC(=O)c2cc(-c3ccc(Cl)cc3)nn(-c3cccc(F)c3)c2=O)C1 (stereo partly drawn) [Example 44, 6-(4-chlorophenyl)-2-(3-fluorophenyl)-N-[(cis)-4-hydroxy-1-imino-1-oxidotetrahydro-1H-1lambda4-thiophen-3-yl]-3-oxo-2,3-dihydropyridazine-4-carboxamide]
